This is an account of results in patent US8486683B2, “Beta-glucosidase enzymes” (Iogen Energy Corporation, priority 2009, dated 2013).

Data set [1] has as its target T1, Trichoderma reesei beta-glucosidase TrCel3A (Cel3A, BGL1), wild type (parental), SEQ ID NO: 116 / SEQ ID NO: 1 (Trichoderma reesei, UniProt Q12715).
T1 sequence (Q12715 32-744): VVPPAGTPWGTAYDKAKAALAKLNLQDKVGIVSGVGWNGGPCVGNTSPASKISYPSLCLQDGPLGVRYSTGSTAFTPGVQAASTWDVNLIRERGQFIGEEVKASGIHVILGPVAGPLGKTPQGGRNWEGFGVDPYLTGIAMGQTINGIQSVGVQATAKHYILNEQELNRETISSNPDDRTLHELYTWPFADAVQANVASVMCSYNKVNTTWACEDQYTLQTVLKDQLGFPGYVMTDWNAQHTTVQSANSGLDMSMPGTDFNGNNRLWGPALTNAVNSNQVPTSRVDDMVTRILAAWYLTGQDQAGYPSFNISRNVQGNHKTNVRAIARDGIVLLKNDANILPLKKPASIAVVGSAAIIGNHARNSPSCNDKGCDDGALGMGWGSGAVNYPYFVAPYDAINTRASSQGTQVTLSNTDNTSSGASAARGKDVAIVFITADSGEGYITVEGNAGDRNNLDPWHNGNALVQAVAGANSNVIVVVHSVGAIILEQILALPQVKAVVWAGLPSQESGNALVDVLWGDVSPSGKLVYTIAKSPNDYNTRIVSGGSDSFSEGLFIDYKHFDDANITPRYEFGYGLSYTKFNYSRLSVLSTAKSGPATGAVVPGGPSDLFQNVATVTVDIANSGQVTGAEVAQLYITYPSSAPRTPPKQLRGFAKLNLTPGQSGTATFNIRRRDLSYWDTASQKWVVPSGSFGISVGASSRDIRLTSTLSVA
The experiment in a line: Initial rate assay of cellobiose hydrolysis, parental TrCel3A (Example 9). Type of data set: biochemical. The source says: (§1) KG is defined as the concentration of glucose which reduces the enzymatic activity of the beta-glucosidase by 50%. […] The kcat is the catalytic rate constant for the hydrolysis of cellobiose. Example 8 details an assay for measuring the KG and KG2 of parental and modified TrCel3A beta-glucosidases. Example 9 details an assay for measuring the kcat of parental and modified TrCel3A beta-glucosidases.
(§2) KG of the parental and modified TrCel3A beta-glucosidases can be determined by measuring the rate of hydrolysis of a chromogenic substrate, such as p-nitrophenyl-beta-D-glucopyranoside (pNPG), in the presence of various concentrations of glucose as described in Example 8. […] The KG2 constants for parental and modified TrCel3A beta-glucosidases can be determined by measuring the rate of hydrolysis of cellobiose in reactions containing increasing concentrations of cellobiose or, alternatively, by measuring the rate of hydrolysis of a chromogenic substrate, such as pNPG, in the presence of various concentrations of a cellobiose as described in Example 8. […] The kcat values for parental and modified TrCel3A beta-glucosidases can be determined by measuring the rate of cellobiose hydrolysis at varying concentrations of a cellobiose substrate, for example, as described in Example 9. […]

In data set [2] the test system is Trichoderma reesei beta-glucosidase TrCel3A variant TrCel3A-I543N, SEQ ID NO: 10 (full: SEQ ID NO: 125). The data set is described as follows: Initial rate assay of cellobiose hydrolysis, TrCel3A-I543N (Example 9). Format: biochemical. The conditions noted are these: relative to parental TrCel3A.
From the text: as §1, §2

Data set [3] addresses T1, Trichoderma reesei beta-glucosidase TrCel3A (Cel3A, BGL1), wild type (parental), SEQ ID NO: 116 / SEQ ID NO: 1. The data set is described as follows: pNPG competitive substrate/inhibitor real-time kinetic assay, parental TrCel3A (Example 8).
Data set [4] deals with Beta-glucosidases from most fungi. The conditions noted are these: literature, read-out: KG values for glucose (glucose inhibition); cited from earlier work.
For data set [5], the target named is Several microbial beta-glucosidases with higher tolerance to glucose inhibition. Particulars: literature, read-out: KG (tolerance to glucose inhibition); cited from earlier work.
Substrate in data set [6]: OC[C@H]1O[C@@H](O[C@H]2[C@H](O)[C@@H](O)C(O)O[C@@H]2CO)[C@H](O)[C@@H](O)[C@@H]1O
The experiment in a line: purified protein, by the assay type. Particulars: other: 0.4 mM pNPG, 3 mM cellobiose, 50 mM citrate pH 5.0, 50° C.

Values joined by “and” are separate entries in the source; they are usually repeats but may differ in a detail not shown here. Equal values may be shown once.

With `OC[C@H]1O[C@@H](O[C@H]2[C@H](O)[C@@H](O)C(O)O[C@@H]2CO)[C@H](O)[C@@H](O)[C@@H]1O` (stereo partly drawn) [cellobiose, gluco-beta-(1,4)-glucoside], the “kcat (catalytic rate constant for cellobiose)” value in data set [1] (0.3 to 40 mM cellobiose, 50° C., 15 min) is 8.92 µmol/min/mg and 8.92 ± 0.29 µmol/min/mg. The Relative kcat in data set [1] (cellobiose, relative to parental TrCel3A) stood at 1; in data set [2] it was 0.73. In addition, in data set [3] (relative to parental TrCel3A), the “Relative KG2” value stood at 1.00.

`OC[C@H]1OC(O)[C@H](O)[C@@H](O)[C@@H]1O` (some centres unmarked) [glucose]: the Ki is 600 to 8000 µM in data set [4], above 8000 µM in data set [5] and 580 µM in data set [3].

B1: Trichoderma reesei beta-glucosidase TrCel3A (Cel3A, BGL1), wild type (parental), SEQ ID NO: 116 / SEQ ID NO: 1 (Trichoderma reesei) (protein)
chain: T1 sequence (Q12715 32-744)
For the molecule B1, the Km in data set [6] came to 1180 ± 120 µM.
